# In patent US12187703B2, “Crystalline forms of N-(3-(2-(2-hydroxyethoxy)-6-morpholinopyridin-4-yl)-4-methvlphenyl)-2 (trifluoromethyl)isonicotinamide as Raf inhibitors for the treatment of cancer” (NOVARTIS AG, priority 2019, dated 2025):
# Where two headings read alike, the source gives them in different places.
# Legend:
# Format in all cases: physicochemical
# [1] = Behaviour under compression, grinding and granulation with water
# [2] = Hygroscopicity, storage and solubility conclusions; conditions: for Hygroscopicity: non-hygroscopic defined as water uptake at most 2 w-%, 0 to 95% RH, 25° C. (GMS/DVS)
# Description: The term “non-hygroscopic” as used herein refers to a compound showing a water uptake of at most 2 w-% in the sorption cycle when measured with GMS (or DVS) at a relative humidity in the range of from 0 to 95% RH and a temperature of (25.0±0.1) ° C., based on the weight of the compound. Non-hygroscopic is preferably up to 0.2%.
# [3] = Solubility at 25° C., 24 hours slurry; conditions: for Final pH: 25° C.; for solubility at 24 h: 25 °C, thermodynamic from solid, read-out: Solubility at 25° C.
# Description: A sample was weighed in a glass vial and solvent added to make a slurry followed by stirring or shaking at 25° C. for 24 hours. The amount of sample and solvents depends on the target concentration, e.g. if the target concentration is 10 mg/mL, the weight of the sample should be 10 mg and the amount of solvent volume should be 1 mL. The solid and liquid are separated by centrifugation at 13000 rpm for 2 minutes with 0.2 μm membrane. The filtrate is then used for the solubility test after appropriate dilution. The diluent is from the UPLC method. The solids obtained after equilibration were analyzed by XRPD after being dried at 40° C. under vacuum for 2 hours. DSC/TGA analysis was conducted for selected samples.
# [4] = Bulk density and flowability with ring shear tester; conditions: listed as Modification A
# Description: (§1) Pilot manufacture batches producing Modification HA and Form A on kilogram scale were compared for their respective bulk powder properties. The particle size distribution (PSD) was determined according to the corresponding method for release. Other measurements were performed using technical methods known in the art or as described herein.
# [5] = Water activity experiments of Form A
# Description: About 100 mg of Form A is equilibrated with 0.5 mL solvent by stirring at RT or 50° C. The slurries are filtered. The wet cake is investigated by XRPD.
# [6] = Particle size distribution by Fraunhofer light diffraction; conditions: pilot manufacture batch, kilogram scale; listed as Modification A
# Description: as §1
# A few drops of the dispersing aid were added to an appropriate amount of test substance. The mixture was mixed intensively, e.g. on a vortex mixer, in order to wet the substance thoroughly and to form a smooth and homogeneous paste. The resultant paste was diluted with the dispersion liquid to a final volume of 3-6 ml and the dispersion mixed again. The cumulative volume distribution was determined using a laser light diffraction instrument as stated above. The parameters could be adjusted accordingly so that the test dispersion is representative, homogeneous and well dispersed.
# Particle sizes were determined at the undersize values of 10%, 50% and 90% (×10, ×50, ×90), and additional values in question, from the cumulative volume distribution.
# [7] = Stability testing, solid state bulk (UPLC, color, XRPD, TGA); set-up: key: A: No change of color; B: Slight discoloration
# Description: (§2) X-ray powder diffraction (XRPD) analysis of all polymorph forms was performed using a Bruker D8 Discover x-ray diffractometer with XYZ stage. Measurements were taken at about 40 kV and 1 mA under the following conditions:
# (§3) Crystalline Monohydrate Form HA was analysed by thermogravimetric analysis (TGA) using a Discovery Thermogravimetric Analysis Calorimeter from TA instruments under the following conditions (see Table 6).
# (§4) No notable change in chemical purity, nor change in XRPD, nor change in TGA, was observed.
# [8] = as above
# Description: as §2, §3, §4
# [9] = as above; set-up: key: A: No change of color; conditions: Solid state
# Description: as §2, §3, §4
# [10] = Humidity exposure of amorphous form; conditions: ambient humidity or 92% RH
# [11] = 50° C., water 0%/IPA 100%, aw 0.000
# [12] = 50° C., water 1%/IPA 99%, aw 0.124
# [13] = 50° C., water 3.2%/IPA 96.8%, aw 0.324
# [14] = 50° C., water 100%/IPA 0%, aw 1.000
# [15] = RT, water 0%/IPA 100%, aw 0.000
# [16] = RT, water 100%/IPA 0%, aw 1.000
# [17] = Solid state, 1 week 80° C./75% r.h.
# [18] = Xenon light (approx. 1200 kLuxh)
# [19] = Solid state, 1 week 50° C., closed container
# [20] = Solid state, 1 week 50° C./75% r.h.
# [21] = Solid state, 1 week 80° C., closed container
compound,measurement,setting,value
"Cc1ccc(NC(=O)c2ccnc(C(F)(F)F)c2)cc1-c1cc(OCCO)nc(N2CCOCC2)c1 [Form A, N-(3-(2-(2-hydroxyethoxy)-6-morpholinopyridin-4-yl)-4-methylphenyl)-2-(trifluoromethyl)isonicotinamide]",Physical form upon granulation with water or compression,[1],remains unchanged
same,Crystallinity when compressed,[1]; pressures of 3 to 6 MPa,slight decrease in crystallinity
same,Relative solubility of forms,[2],more soluble than Form HA
same,"Solubility, overall rating",[2],adequate solubility
same,Stability when stored in bulk quantities,[2],stable when stored in bulk quantities
same,Hygroscopicity,[2],non-hygroscopic
same,Solubility at 25° C.,"[3]; 0.01N HCl, pH 2.0",1.4 µg/mL
same,Final pH,"[3]; 0.01N HCl, pH 2.0",2.16
same,Solubility at 25° C.,"[3]; 0.1N HCl, pH 1.0",292.9 µg/mL
same,Final pH,"[3]; 0.1N HCl, pH 1.0",1.07
same,Final pH,"[3]; Acetate buffer, pH 4.7",4.82
same,Final pH,"[3]; Borate buffer, pH 9.0",9.01
same,solubility at 24 h,"[3]; FaSSIF, pH 6.5, fassif, FaSSIF, pH 6.5",0.8 µg/mL
same,Final pH,"[3]; FaSSIF, pH 6.5",6.45
same,Solubility at 25° C.,"[3]; FeSSIF, pH 5.8",41.3 µg/mL
same,Final pH,"[3]; FeSSIF, pH 5.8",5.82
same,solubility at 24 h,"[3]; N,N-dimethylformamide, organic solvent or mixture, N,N-Dimethylformamide",> 10000 µg/mL
same,Final pH,"[3]; Phosphate buffer, pH 6.8",6.74
same,Solubility at 25° C.,"[3]; SGF, pH 2.0",22 µg/mL
same,Final pH,"[3]; SGF, pH 2.0",2.05
same,Final pH,[3]; Water,8.93
same,solubility at 24 h,"[3]; acetate buffer, pH 4.7, aqueous buffer, Acetate buffer, pH 4.7",< 0.3 µg/mL
same,solubility at 24 h,"[3]; acetonitrile, organic solvent or mixture, Acetonitrile",> 10000 µg/mL
same,solubility at 24 h,"[3]; borate buffer, pH 9, aqueous buffer, Borate buffer, pH 9.0",< 0.3 µg/mL
same,solubility at 24 h,"[3]; dichloromethane, organic solvent or mixture, Dichloromethane",> 10000 µg/mL
same,solubility at 24 h,"[3]; ethanol, organic solvent or mixture, Ethanol",> 10000 µg/mL
same,solubility at 24 h,"[3]; ethyl acetate, organic solvent or mixture, Ethyl acetate",> 10000 µg/mL
same,solubility at 24 h,"[3]; phosphate buffer, pH 6.8, aqueous buffer, Phosphate buffer, pH 6.8",< 0.3 µg/mL
same,solubility at 24 h,"[3]; water, water, Water",< 0.3 µg/mL
same,"Bulk flowability with ring shear tester, rating in words",[4]; under 1250 Pa normal stress,“very cohesive”
same,Technical measurement of bulk flowability with ring shear tester,[4]; under 1250 Pa normal stress,1.45
same,Technical measurement of bulk density with ring shear tester,[4]; under no consolidation stress,71 kg/m^3
same,After 1 d equilibration (wet cake XRPD),[5]; [11],Form A
same,After 5 d equilibration (wet cake XRPD),[5]; [11],Form A
same,After 1 d equilibration (wet cake XRPD),[5]; [12],Form A
same,After 5 d equilibration (wet cake XRPD),[5]; [12],Form A
same,After 1 d equilibration (wet cake XRPD),[5]; [13],Form A
same,After 5 d equilibration (wet cake XRPD),[5]; [13],Form A
same,After 1 d equilibration (wet cake XRPD),[5]; [14],Form A
same,After 5 d equilibration (wet cake XRPD),[5]; [14],Form A
same,After 1 d equilibration (wet cake XRPD),[5]; [15],Form A
same,After 5 d equilibration (wet cake XRPD),[5]; [15],Form A
same,After 1 d equilibration (wet cake XRPD),"[5]; RT, water 1%/IPA 99%, aw 0.120",Form A
same,After 5 d equilibration (wet cake XRPD),"[5]; RT, water 1%/IPA 99%, aw 0.120",Form A
same,After 1 d equilibration (wet cake XRPD),"[5]; RT, water 3.2%/IPA 96.8%, aw 0.316",Form A + HA
same,After 1 d equilibration (wet cake XRPD),[5]; [16],Form A
same,After 5 d equilibration (wet cake XRPD),[5]; [16],Form A
same,Time for complete conversion of Form A to Monohydrate HA,"[5]; water activity of 0.3, room temperature",5 days
same,"Diameter X of PSD measured during release, X50",[6],X50: 8 μm
same,"Diameter X of PSD measured during release, X90",[6],X90: 44 μm
"Cc1ccc(NC(=O)c2ccnc(C(F)(F)F)c2)cc1-c1cc(OCCO)nc(N2CCOCC2)c1 [Form B, N-(3-(2-(2-hydroxyethoxy)-6-morpholinopyridin-4-yl)-4-methylphenyl)-2-(trifluoromethyl)isonicotinamide]","XRPD pattern upon grinding, compression and granulation with water",[1],did not change
same,Relative solubility of forms,[2],more soluble than Form A
same,"Solubility, overall rating",[2],adequate solubility
same,Stability when stored in bulk quantities,[2],stable when stored in bulk quantities
same,Hygroscopicity,[2],non-hygroscopic
same,Color (CL),[7]; [17],B
same,Color (CL),[7]; [18],B
same,Solubility at 25° C.,"[3]; 0.01N HCl, pH 2.0",141.2 µg/mL
same,Final pH,"[3]; 0.01N HCl, pH 2.0",2.04
same,Solubility at 25° C.,"[3]; 0.1N HCl, pH 1.0",1026.4 µg/mL
same,Final pH,"[3]; 0.1N HCl, pH 1.0",1.02
same,Solubility at 25° C.,"[3]; Acetate buffer, pH 4.7",< 0.2 µg/mL
same,Final pH,"[3]; Acetate buffer, pH 4.7",4.78
same,Solubility at 25° C.,[3]; Acetonitrile,>10000 µg/mL
same,Solubility at 25° C.,"[3]; Borate buffer, pH 9.0",< 0.2 µg/mL
same,Final pH,"[3]; Borate buffer, pH 9.0",8.97
same,Solubility at 25° C.,[3]; Dichloromethane,>10000 µg/mL
same,Solubility at 25° C.,[3]; Ethanol,>10000 µg/mL
same,Solubility at 25° C.,[3]; Ethyl acetate,>10000 µg/mL
same,Solubility at 25° C.,"[3]; FaSSIF, pH 6.5",1.4 µg/mL
same,Final pH,"[3]; FaSSIF, pH 6.5",6.91
same,Solubility at 25° C.,"[3]; FeSSIF, pH 5.8",137 µg/mL
same,Final pH,"[3]; FeSSIF, pH 5.8",6.08
same,Solubility at 25° C.,"[3]; N,N-Dimethylformamide",>10000 µg/mL
same,Solubility at 25° C.,"[3]; Phosphate buffer, pH 6.8",< 0.2 µg/mL
same,Final pH,"[3]; Phosphate buffer, pH 6.8",6.75
same,Solubility at 25° C.,"[3]; SGF, pH 2.0",2.1 µg/mL
same,Final pH,"[3]; SGF, pH 2.0",2.02
same,Solubility at 25° C.,[3]; Water,< 0.2 µg/mL
same,Final pH,[3]; Water,8.11
same,solubility at 24 h,"[3]; heptane, organic solvent or mixture, Heptane",< 0.2 µg/mL
same,Bulk (XRPD),[8]; [19],no change
same,"DP %, Bulk (UPLC)",[8]; [19],2.46%
same,Bulk (XRPD),[8]; [20],no change
same,"DP %, Bulk (UPLC)",[8]; [20],2.49%
same,Bulk (XRPD),[8]; [21],no change
same,"DP %, Bulk (UPLC)",[8]; [21],2.12%
same,Bulk (XRPD),[8]; [17],changed
same,"DP %, Bulk (UPLC)",[8]; [17],3.32%
same,Bulk (XRPD),[8]; [18],no change
same,"DP %, Bulk (HPLC)",[8]; [18],3.66%
same,Stability upon exposure to elevated temperature or humidity,[8]; degradation products and physical form,relatively stable
same,Color (CL),"[9]; 1 week 50° C., closed container",A
same,Color (CL),[9]; 1 week 50° C./75% r.h.,A
same,Color (CL),"[9]; 1 week 80° C., closed container",A
"Cc1ccc(NC(=O)c2ccnc(C(F)(F)F)c2)cc1-c1cc(OCCO)nc(N2CCOCC2)c1 [amorphous form, N-(3-(2-(2-hydroxyethoxy)-6-morpholinopyridin-4-yl)-4-methylphenyl)-2-(trifluoromethyl)isonicotinamide]",Physical form stability under humidity,[10],remains stable and does not convert to HA
